This is an account of results in patent US7208496B2, “Substituted heterocyclic compounds” (CV Therapeutics, Inc., priority 2003, dated 2007).

In the assay the test system is Palmitoyl CoA oxidation in rat heart mitochondria. Description: Palmitoyl CoA oxidation assay (mitochondrial assay, Example 16). It counts as biochemical. The note with it: 16 microM 1-C14 palmitoyl CoA, 15 min at 30° C., read-out: IC value, Palmitoyl CoA oxidation. As to the method:
Rat heart mitochondria are isolated by the method of Nedergard and Cannon (Methods in Enzymol. 55, 3, 1979).
Palmitoyl CoA oxidation—The Palmityl CoA oxidation is carried out in a total volume of 100 micro liters containing the following agents: 110 mM KCl, 33 mM Tris buffer at pH 8, 2 mM KPi, 2 mM MgCl2, 0.1 mM EDTA, 14.7 microM defatted BSA, 0.5 mM malic acid, 13 mM carnitine, 1 mM ADP, 52 micrograms of mitochondrial protein, and 16 microM 1-C14 palmitoyl CoA (Sp. Activity 60 mCi/mmole; 20 microCi/ml, using 5 microliters per assay). The compounds of this invention are added in a DMSO solution at the following concentrations: 100 micro molar, 30 micro molar, and 3 micro molar. In each assay, a DMSO control is used. After 15 min at 30° C., the enzymatic reaction is centrifuged (20,000 g for 1 min), and 70 microliters of the supernatant is added to an activated reverse phase silicic acid column (approximately 0.5 ml of silicic acid). The column is eluted with 2 ml of water, and 0.5 ml of the eluent is used for scintillation counting to determine the amount of C^14 trapped as C^14 bicarbonate ion.

As for “{(3S)-4-[(2R)-2-hydroxy-3-(2-methylbenzothiazol-5-yloxy)propyl]-3-methylpiperazinyl}-N-(9-ethylcarbazol-3-yl)carboxamide”, the IC50 was 2.6 µM.
